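Values below derive from 48-hour exposures of cells grown in 96-well plates, with endpoints linearly interpolated between the two concentrations bracketing the appropriate inhibition level. Definition used: TGI = concentration required for complete inhibition of growth.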
Experiments:
Assay in all cases: growth of human tumour cells (NCI), 48 h
[1] = test system: DU-145 prostate
[2] = test system: K-562 leukemia
[3] = test system: RPMI-8226 leukemia
[4] = test system: MALME-3M melanoma
[5] = test system: NCI-H23 lung
[6] = test system: KM12 colon
[7] = test system: NCI-H226 lung
[8] = test system: SF-268 CNS
[9] = test system: COLO 205 colon
[10] = test system: SK-MEL-28 melanoma
[11] = test system: SK-OV-3 ovarian
[12] = test system: CCRF-CEM leukemia
[13] = test system: NCI-H522 lung
[14] = test system: HOP-92 NSCLC
[15] = test system: NCI/ADR-RES ovarian
[16] = test system: IGROV1 ovarian
[17] = test system: UO-31 renal
[18] = test system: HCT-116 colon
[19] = test system: HL-60(TB) leukemia
[20] = test system: U251 CNS
[21] = test system: CAKI-1 renal
[22] = test system: MCF7 breast
[23] = test system: UACC-62 melanoma
[24] = test system: HS 578T breast
[25] = test system: A549 NSCLC
[26] = test system: ACHN renal
[27] = test system: HOP-62 NSCLC
[28] = test system: EKVX NSCLC
[29] = test system: 786-0 renal
[30] = test system: MDA-MB-231 breast
[31] = test system: TK-10 renal
[32] = test system: SN12C renal
[33] = test system: SK-MEL-5 melanoma
[34] = test system: OVCAR-3 ovarian
[35] = test system: LOX IMVI melanoma
[36] = test system: A498 renal
[37] = test system: OVCAR-8 ovarian
[38] = test system: MOLT-4 leukemia
[39] = test system: SW-620 colon
[40] = test system: BT-549 breast
[41] = test system: OVCAR-4 ovarian
[42] = test system: MDA-MB-435
[43] = test system: UACC-257 melanoma
[44] = test system: SNB-19 CNS
[45] = test system: SR leukemia
[46] = test system: HT29 colon
[47] = test system: SF-539 CNS
[48] = test system: SF-295 CNS
[49] = test system: T-47D breast
[50] = test system: MDA-N
[51] = test system: HCT-15 colon
[52] = test system: M14 melanoma
[53] = test system: HCC-2998 colon
[54] = test system: SNB-75 CNS
[55] = test system: OVCAR-5 ovarian
[56] = test system: NCI-H460 lung

Work on `O=c1[nH]nc(Cc2ccccc2)n1O` yielded a TGI [1] greater than 100 µM, a TGI [2] greater than 100 µM and a TGI [3] greater than 100 µM. The TGI [4] was greater than 100 µM, the TGI [5] was greater than 100 µM and the TGI [6] was greater than 100 µM. The TGI [7] was greater than 100 µM, the TGI [8] was greater than 100 µM and the TGI [9] was greater than 100 µM. It also gave a TGI [10] greater than 100 µM, a TGI [11] greater than 100 µM and a TGI [12] greater than 100 µM. For the same compound, the TGI [13] was greater than 100 µM, the TGI [14] was greater than 100 µM and the TGI [15] was greater than 100 µM. The TGI [16] was greater than 100 µM, the TGI [17] was greater than 100 µM and the TGI [18] was greater than 100 µM. The TGI [19] was greater than 100 µM, the TGI [20] was greater than 100 µM and the TGI [21] was greater than 100 µM. For the same compound, the TGI [22] was greater than 100 µM, the TGI [23] was greater than 100 µM and the TGI [24] was greater than 100 µM. For the same compound, the TGI [25] was greater than 100 µM, the TGI [26] was greater than 100 µM and the TGI [27] was greater than 100 µM. The TGI [28] was greater than 100 µM, the TGI [29] was greater than 100 µM and the TGI [30] was greater than 100 µM. For the same compound, the TGI [31] was greater than 100 µM, the TGI [32] was greater than 100 µM and the TGI [33] was greater than 100 µM. It also gave a TGI [34] greater than 100 µM, a TGI [35] greater than 100 µM and a TGI [36] greater than 100 µM. The TGI [37] was greater than 100 µM, the TGI [38] was greater than 100 µM and the TGI [39] was greater than 100 µM. The TGI [40] was greater than 100 µM, the TGI [41] was greater than 100 µM and the TGI [42] was greater than 100 µM. For the same compound, the TGI [43] was greater than 100 µM, the TGI [44] was greater than 100 µM and the TGI [45] was greater than 100 µM. The TGI [46] was greater than 100 µM, the TGI [47] was greater than 100 µM and the TGI [48] was greater than 100 µM. For the same compound, the TGI [49] was greater than 100 µM and the TGI [50] was greater than 100 µM.
Compound `C[C@H]1CC[C@@H]2[C@@H](C)C[C@H]3[C@@H]4C(C)(C)OC(=O)[C@]4(C)C(=O)[C@@]23C1=O` has a TGI [1] greater than 100 µM, a TGI [2] greater than 100 µM and a TGI [3] greater than 100 µM. It also gave a TGI [4] greater than 100 µM, a TGI [5] greater than 100 µM and a TGI [6] greater than 100 µM. For the same compound, the TGI [7] was greater than 100 µM, the TGI [8] was greater than 100 µM and the TGI [9] was greater than 100 µM. For the same compound, the TGI [10] was greater than 100 µM, the TGI [11] was greater than 100 µM and the TGI [12] was greater than 100 µM. It also gave a TGI [13] greater than 100 µM, a TGI [14] greater than 100 µM and a TGI [51] greater than 100 µM. For the same compound, the TGI [15] was greater than 100 µM, the TGI [16] was greater than 100 µM and the TGI [18] was greater than 100 µM. For the same compound, the TGI [19] was greater than 100 µM, the TGI [21] was greater than 100 µM and the TGI [22] was greater than 100 µM. For the same compound, the TGI [23] was greater than 100 µM, the TGI [24] was greater than 100 µM and the TGI [25] was greater than 100 µM. It also gave a TGI [52] greater than 100 µM, a TGI [26] greater than 100 µM and a TGI [27] greater than 100 µM. It also gave a TGI [28] greater than 100 µM, a TGI [29] greater than 100 µM and a TGI [53] greater than 100 µM. For the same compound, the TGI [30] was greater than 100 µM, the TGI [31] was greater than 100 µM and the TGI [32] was greater than 100 µM. It also gave a TGI [33] greater than 100 µM, a TGI [34] greater than 100 µM and a TGI [35] greater than 100 µM. For the same compound, the TGI [36] was greater than 100 µM, the TGI [37] was greater than 100 µM and the TGI [38] was greater than 100 µM. It also gave a TGI [39] greater than 100 µM, a TGI [40] greater than 100 µM and a TGI [54] greater than 100 µM. It also gave a TGI [41] greater than 100 µM, a TGI [55] greater than 100 µM and a TGI [56] greater than 100 µM. The TGI [42] was greater than 100 µM, the TGI [43] was greater than 100 µM and the TGI [44] was greater than 100 µM. The TGI [46] was greater than 100 µM, the TGI [47] was greater than 100 µM and the TGI [48] was greater than 100 µM. For the same compound, the TGI [49] was 68.1 µM and the TGI [50] was greater than 100 µM.
